In brackets after ≈: the same amount, converted by molar mass. Read-outs that look alike come from different tables or passages of the source.
Tests used:
[1] = Solubility in various solvents, shaker method; type: physicochemical; conditions: for solubility at 72 h: thermodynamic from solid, read-out: Mean Solubility ± SD
Protocol: Assessment of the solubility of compound 5 in various solvents is important in developing suitable formulations for preclinical and clinical studies. The solubility of compound 5 in water, ethanol, poly ethylene glycol 400, propylene glycol monocapryrate type I (PGMC), propylene glycol monocapryrate type II (CAPYROL 90), dimethyl sulfoxide (DMSO), dimethyl acetamide (DMA), TWEEN 80, TWEEN 20, paraffin oil, soybean oil, and olive oil were determined by the shaker method. Briefly, excess amount of compound 5 was added to each of the selected solvents in a scintillation vial and placed on a reciprocating shaker to shake at room temperature for 72 h. The samples were centrifuged at 14,000 rpm for 10 min and subsequently filtered through a 0.22 μm filtration unit; the resulting filtrate was analyzed by HPLC-UV to determine the amount of compound 5 dissolved in the solvents. The experiment was conducted in triplicate.

[2] = Octanol-water partition co-efficient, shaker method; type: physicochemical; conditions: read-out: experimental M log P
Protocol: The octanol—water partition co-efficient (log P) of compound 5, which measures its hydrophilicity (“water-loving” property) or hydrophobicity (“water-repelling” property), was evaluated using the shaker method. […] This indicate potential water solubility challenges especially for oral administration.

[3] = test system: Pseudomonas aeruginosa (PA14); experiment: Screening against P. aeruginosa in LB and SK media
E. faecalis OG1RF = experiment: Liquid-based C. elegans infection model, survival; type: in vivo, Enterococcus faecalis
[4] = Stability of co-solvent formulations at storage temperatures; type: physicochemical; conditions: stored at −20° C., 4° C. and 25° C.; Day 3, 7, 14 and 30
Protocol: The stability of the optimal co-solvent formulations was investigated at various storage temperatures. Briefly, aliquots of the optimal co-solvent formulations were stored at different temperatures (−20° C., 4° C. and 25° C.) and analyzed using LC/MS/MS on Day 3, 7, 14 and 30 to determine the amount of compound 5 remaining. The experiment was conducted in triplicates. […] The optimal co-solvent formulations were applied to the pharmacokinetic study of compound 5 in rats (Table 18).

In the case of `Oc1c(Br)cc(Cl)c2cccnc12` [Compound 5, 7-bromo-5-chloroquinolin-8-ol], the “Mean Solubility ± SD” value ([1]; Dimethyl acetamide) is reported as greater than 80 mg/mL, the solubility at 72 h ([1]; dimethyl acetamide, organic solvent or mixture) is reported as greater than 80 mg/mL and the solubility at 72 h ([1]; water) is reported as 0.07 mg/mL (≈ 271 µM). The logP [2] was 3.03 ± 0.04, the MIC ([3]; PA14, read-out: MIC30 P. aeruginosa) was less than 2.5 µg/mL and the inhibition at 2.5 µg/mL ([3]; PA14, read-out: inhibition of P. aeruginosa) was roughly 80%. The “survival of the nematodes at Maximum protective concentration” value (E. faecalis OG1RF; 4×10^−4 μg/mL) was roughly 80%, the “survival of infected animals compared to tetracycline” value (E. faecalis OG1RF; 4×10^−5 μg/mL to 4×10^−4 μg/mL) was “survived just as well, or better, than animals treated with tetracycline” and the “MPC (Minimum Protective Concentration) OG1RF” value (E. faecalis OG1RF; C. elegans) was 4e-11 µg/mL. The “MmaxPC (Maximum Protective Concentration) OG1RF” value (E. faecalis OG1RF; C. elegans) was 0.0004 µg/mL and the “stability in the optimal co-solvent formulations” value [4] was “stable in the co-solvent formulations for up to one month”.
